Measured values as given in patent US20210261642A1, “SOLUBILITY OF GLP-1 PEPTIDE” (Novo Nordisk A/S, priority 2017, published 2021).

Test: Assay (I): Determination of Solubility (96-well plate, pH 3.0-11.0, organic solvent 0-70% w/w, UV absorption at 280 nm)
Assay type: physicochemical
Details: Method 2 (precipitation), 5° C.
Experimental: Assay (I): Determination of Solubility
96-Well Plate Preparation
96-well plates containing target peptide in a solid form were prepared in one of two ways:
Method 1 (evaporation): Addition of 100 μl stock solution of said peptide at a concentration of 4-6 mg/ml to each well of a 96-well half area plate (150 μl well size). Subsequently the solvent was evaporated by applying a vacuum until the solvent was completely removed.
Method 2 (precipitation): Addition of a certain volume of a stock solution of said peptide containing to each well of a 96-well half area plate followed by the addition of a certain volume of concentrated phosphoric acid to obtain a pH of 4.6 followed by addition of a certain volume of ethanol resulting in a final ethanol concentration of 20% v/v. Subsequently the plate was stored at 4° C. for 1 h and then centrifuged at 4,000 rpm for 20 min. Finally the supernatant was removed. The concentration of the stock solution was chosen in a way that the final amount of peptide after supernatant removal was >0.4 mg per well.
In both cases the stock solution was prepared by adding de-ionized water to a certain amount of powder of said peptide followed by a stepwise addition of small amounts of a concentrated sodium hydroxide solution until said peptide was completely in solution.
To determine solubility of a target peptide at different pH and organic solvent concentrations, two different buffer systems were used in independent experiments to cover the whole range from pH 3.0 to pH 11.0. Buffer system 1 covers pH 3.0-7.5 and buffer system 2 covers pH 7.5-11.0. For each buffer system 96 different solvent compositions were premixed in the following way: • 1. A low pH buffer (adjusted to either pH 3.0 or pH 7.5) and a high pH buffer (adjusted to either pH 7.5 or pH 11.0) were mixed at 8 different ratios to obtain values between pH 3.0 and pH 7.5 or pH 7.5 and pH 11.0, respectively. The total volume after mixing was 300 μl. • 2. 12 different amounts of organic solvent were then added to these buffers to obtain organic solvent (e.g. ethanol) concentrations between 0 and 70% w/w. • 3. Water was then added to obtain a total weight of 1.0 g of solvent in each well.
After preparing the 96 different solvent systems, 100 μl of each system was transferred to the 96-well plate containing the solid form of the target peptide (prepared as described in the section “96-well plate preparation”). The plate was then stored at a given temperature (between 5° C. and 70° C.) for a given time on a rotating shaker set to 400 rpm. At regular time intervals the plate was centrifuged (4,000 rpm for 10 min) and a 10 μl sample was taken from each well. The samples were then analysed by UV absorption at 280 nm for peptide quantification. Peptide concentration results are given as UV absorption at 280 nm of the sample subtracted UV absorption at 280 nm of a well comprising 10 μl water.
The buffers used were as follows: • Buffer system 1 (for the pH range from pH 3.0-7.5)
• Buffer system 2 (for the pH ranae from pH 7.5-11.0)
Solubility of liraglutide was determined using Assay (I) described herein. Liraglutide was prepared using Method 1 (evaporation) or Method 2 (precipitation) as described in subsection “96-well plate preparation”.

- GLP-1 peptide concentration (MeCN 57.3% w/w, pH 9.50, 5 min, before removal of outliers): 0.5 mg/mL
- GLP-1 peptide concentration (MeCN 57.3% w/w, pH 9.50, 180 min, after removal of outliers): >4.0 mg/mL
- GLP-1 peptide concentration (MeCN 57.3% w/w, pH 9.50, 180 min, before removal of outliers): >4.0 mg/mL
- GLP-1 peptide concentration (MeCN 57.3% w/w, pH 9.50, 24 h, after removal of outliers): 2.5 mg/mL
- GLP-1 peptide concentration (MeCN 57.3% w/w, pH 9.50, 24 h, before removal of outliers): 2.5 mg/mL
- GLP-1 peptide concentration (MeCN 57.3% w/w, pH 10.00, 5 min, after removal of outliers): 0.4 mg/mL
- GLP-1 peptide concentration (MeCN 57.3% w/w, pH 10.00, 5 min, before removal of outliers): 0.4 mg/mL
- GLP-1 peptide concentration (MeCN 57.3% w/w, pH 10.00, 180 min, after removal of outliers): >4.0 mg/mL
- GLP-1 peptide concentration (MeCN 57.3% w/w, pH 10.00, 180 min, before removal of outliers): >4.0 mg/mL
- GLP-1 peptide concentration (MeCN 57.3% w/w, pH 10.00, 24 h, after removal of outliers): 1.1 mg/mL
- GLP-1 peptide concentration (MeCN 57.3% w/w, pH 10.00, 24 h, before removal of outliers): 1.1 mg/mL
- GLP-1 peptide concentration (MeCN 57.3% w/w, pH 10.50, 5 min, after removal of outliers): 0.5 mg/mL
- GLP-1 peptide concentration (MeCN 57.3% w/w, pH 10.50, 5 min, before removal of outliers): 0.5 mg/mL
- GLP-1 peptide concentration (MeCN 57.3% w/w, pH 10.50, 180 min, after removal of outliers): >4.0 mg/mL
- GLP-1 peptide concentration (MeCN 57.3% w/w, pH 10.50, 180 min, before removal of outliers): >4.0 mg/mL
- GLP-1 peptide concentration (MeCN 57.3% w/w, pH 10.50, 24 h, after removal of outliers): 1.7 mg/mL
- GLP-1 peptide concentration (MeCN 57.3% w/w, pH 10.50, 24 h, before removal of outliers): 1.7 mg/mL
- GLP-1 peptide concentration (MeCN 57.3% w/w, pH 11.00, 5 min, after removal of outliers): 0.5 mg/mL
- GLP-1 peptide concentration (MeCN 57.3% w/w, pH 11.00, 5 min, before removal of outliers): 0.5 mg/mL
- GLP-1 peptide concentration (MeCN 57.3% w/w, pH 11.00, 180 min, after removal of outliers): >4.0 mg/mL
- GLP-1 peptide concentration (MeCN 57.3% w/w, pH 11.00, 180 min, before removal of outliers): >4.0 mg/mL
- GLP-1 peptide concentration (MeCN 57.3% w/w, pH 11.00, 24 h, after removal of outliers): 3.6 mg/mL
- GLP-1 peptide concentration (MeCN 57.3% w/w, pH 11.00, 24 h, before removal of outliers): 3.6 mg/mL
- GLP-1 peptide concentration (MeCN 63.6% w/w, pH 7.50, 5 min, before removal of outliers): 0.4 mg/mL
- GLP-1 peptide concentration (MeCN 63.6% w/w, pH 7.50, 180 min, before removal of outliers): 1.0 mg/mL
- GLP-1 peptide concentration (MeCN 63.6% w/w, pH 7.50, 24 h, before removal of outliers): 2.4 mg/mL
- GLP-1 peptide concentration (MeCN 63.6% w/w, pH 8.00, 5 min, after removal of outliers): 0.5 mg/mL
- GLP-1 peptide concentration (MeCN 63.6% w/w, pH 8.00, 5 min, before removal of outliers): 0.5 mg/mL
- GLP-1 peptide concentration (MeCN 63.6% w/w, pH 8.00, 180 min, after removal of outliers): 1.2 mg/mL
- GLP-1 peptide concentration (MeCN 63.6% w/w, pH 8.00, 180 min, before removal of outliers): 1.2 mg/mL
- GLP-1 peptide concentration (MeCN 63.6% w/w, pH 8.00, 24 h, after removal of outliers): 3.2 mg/mL
- GLP-1 peptide concentration (MeCN 63.6% w/w, pH 8.00, 24 h, before removal of outliers): 3.2 mg/mL
- GLP-1 peptide concentration (MeCN 63.6% w/w, pH 8.50, 5 min, after removal of outliers): 0.5 mg/mL
- GLP-1 peptide concentration (MeCN 63.6% w/w, pH 8.50, 5 min, before removal of outliers): 0.5 mg/mL
- GLP-1 peptide concentration (MeCN 63.6% w/w, pH 8.50, 180 min, after removal of outliers): 3.1 mg/mL
- GLP-1 peptide concentration (MeCN 63.6% w/w, pH 8.50, 180 min, before removal of outliers): 3.1 mg/mL
- GLP-1 peptide concentration (MeCN 63.6% w/w, pH 8.50, 24 h, after removal of outliers): 3.1 mg/mL
- GLP-1 peptide concentration (MeCN 63.6% w/w, pH 8.50, 24 h, before removal of outliers): 3.1 mg/mL
- GLP-1 peptide concentration (MeCN 63.6% w/w, pH 9.00, 5 min, after removal of outliers): 0.5 mg/mL
- GLP-1 peptide concentration (MeCN 63.6% w/w, pH 9.00, 5 min, before removal of outliers): 0.5 mg/mL
- GLP-1 peptide concentration (MeCN 63.6% w/w, pH 9.00, 180 min, after removal of outliers): 1.7 mg/mL
- GLP-1 peptide concentration (MeCN 63.6% w/w, pH 9.00, 180 min, before removal of outliers): 1.7 mg/mL
- GLP-1 peptide concentration (MeCN 63.6% w/w, pH 9.00, 24 h, after removal of outliers): >4.0 mg/mL
- GLP-1 peptide concentration (MeCN 63.6% w/w, pH 9.00, 24 h, before removal of outliers): >4.0 mg/mL
- GLP-1 peptide concentration (MeCN 63.6% w/w, pH 9.50, 5 min, after removal of outliers): 0.6 mg/mL
- GLP-1 peptide concentration (MeCN 63.6% w/w, pH 9.50, 5 min, before removal of outliers): 0.6 mg/mL
- GLP-1 peptide concentration (MeCN 63.6% w/w, pH 9.50, 180 min, after removal of outliers): 2.9 mg/mL
- GLP-1 peptide concentration (MeCN 63.6% w/w, pH 9.50, 180 min, before removal of outliers): 2.9 mg/mL
- GLP-1 peptide concentration (MeCN 63.6% w/w, pH 9.50, 24 h, after removal of outliers): 1.2 mg/mL
- GLP-1 peptide concentration (MeCN 63.6% w/w, pH 9.50, 24 h, before removal of outliers): 1.2 mg/mL
- GLP-1 peptide concentration (MeCN 63.6% w/w, pH 10.00, 5 min, after removal of outliers): 0.4 mg/mL
Compound: CCCCCCCCCCCCCCCC(=O)N[C@@H](CCC(=O)NCCCC[C@H](NC(=O)[C@H](C)NC(=O)[C@H](C)NC(=O)[C@H](CCC(N)=O)NC(=O)CNC(=O)[C@H](CCC(=O)O)NC(=O)[C@H](CC(C)C)NC(=O)[C@H](Cc1ccc(O)cc1)NC(=O)[C@H](CO)NC(=O)[C@H](CO)NC(=O)[C@@H](NC(=O)[C@H](CC(=O)O)NC(=O)[C@H](CO)NC(=O)[C@@H](NC(=O)[C@H](Cc1ccccc1)NC(=O)[C@@H](NC(=O)CNC(=O)[C@H](CCC(=O)O)NC(=O)[C@H](C)NC(=O)[C@@H](N)Cc1cnc[nH]1)[C@@H](C)O)[C@@H](C)O)C(C)C)C(=O)N[C@@H](CCC(=O)O)C(=O)N[C@@H](Cc1ccccc1)C(=O)N[C@H](C(=O)N[C@@H](C)C(=O)N[C@@H](Cc1c[nH]c2ccccc12)C(=O)N[C@@H](CC(C)C)C(=O)N[C@H](C(=O)N[C@@H](CCCNC(=N)N)C(=O)NCC(=O)N[C@@H](CCCNC(=N)N)C(=O)NCC(=O)O)C(C)C)[C@@H](C)CC)C(=O)O [liraglutide, Arg34,Lys26-(N-epsilon-(gamma-L-glutamyl(N-alfa-hexadecanoyl)))-GLP-1(7-37)]
